# Assay results as given in patent publication US11560380B2, “Substituted naphthalene diimides and their use” (UCL Business Ltd, priority 2019, dated 2023).
# Where two headings read alike, the source gives them in different places.
# How the values were obtained:
# LNCaP = experiment: 72 hr XTT cell viability assay, LNCaP; format: cell-based; details: Homo sapiens, read-out: IC50 cell growth inhibition
# Description: (§1) The CyQUANT XTT Cell Viability Assay (Invitrogen) is a complete, optimized assay that generates a consistent colorimetric detection of viable mammalian cells. The assay kit consists of two reagents, XTT Reagent (2,3-bis-(2-methoxy-4-nitro-5-sulfophenyl)-2H-tetrazolium-5-carboxanilide) and Electron Coupling Reagent. XTT Reagent is used to assess cell viability as a function of cellular redox potential, and the electron coupling reagent improves the dynamic range of the assay. The kit was used as per the manufacturers' instructions.
# PC-3 = experiment: 72 hr XTT cell viability assay, PC-3; format: cell-based; details: Homo sapiens; PC-3, 72 hr XTT; read-out: IC50 cell growth inhibition
# Description: as §1
# VCaP = experiment: 72 hr XTT cell viability assay, VCaP; format: cell-based; details: Homo sapiens, read-out: IC50 cell growth inhibition
# Description: as §1
# PANC-1 = experiment: 96 hr SRB cell growth inhibition, PANC-1; format: cell-based; details: Homo sapiens; PANC-1, 96 hr SRB
# MIA-PACA2 = experiment: 96 hr SRB cell growth inhibition, MIA-PACA2; format: cell-based; details: for IC50: Homo sapiens, MIA PaCa-2, MIA-PACA2, 96 hr SRB
# MIA-PACA2 cells = experiment: MTS cell proliferation assay (CellTiter 96 AQueous One Solution), 96 hr; format: cell-based; details: Homo sapiens, MIA PaCa-2, 96 hr MTS assay
# Description: The CellTiter 96® AQueous One Solution Cell Proliferation Assay ([…]) is a colorimetric method for determining the number of viable cells in proliferation or cytotoxicity assays. The CellTiter 96® AQueous One Solution Reagent contains a novel tetrazolium compound [3-(4,5-dimethylthiazol-2-yl)-5-(3-carboxymethoxyphenyl)-2-(4-sulfophenyl)-2H-tetrazolium, inner salt; MTS] and an electron coupling reagent (phenazine ethosulfate; PES). PES has enhanced chemical stability, which allows it to be combined with MTS to form a stable solution. The MTS tetrazolium compound (Owen's reagent) is bioreduced by cells into a colored formazan product that is soluble in tissue culture medium. Assays are performed by adding a small amount of the CellTiter 96@ AQueous One Solution Reagent directly to culture wells, incubating for 1-4 hours and then recording the absorbance at 490 nm with a 96-well plate reader. The quantity of formazan product as measured by absorbance at 490 nm is directly proportional to the number of living cells in culture. The kit was used as per the manufacturers' instructions. After 96-hour incubation with each example compound in MIA-PACA2 cells, the cell proliferation of each sample was measured using the MTS Cell Titre 96 Aqueous One Solution Cell Proliferation Assay (Promega Ltd). The percentage of inhibition was calculated against the mean of the DMSO treated controls samples.
# 22RV1 = experiment: 72 hr XTT cell viability assay, 22RV1; format: cell-based; details: Homo sapiens; 22RV1, 72 hr XTT; read-out: IC50 cell growth inhibition
# Description: as §1
# MIA-PACA2^gemR = experiment: 96 hr SRB cell growth inhibition, MIA-PACA2 gemR; format: cell-based; details: Homo sapiens, MIA PaCa-2
# CAPAN-1 = experiment: 96 hr SRB cell growth inhibition, CAPAN-1; format: cell-based; details: Homo sapiens; CAPAN-1, 96 hr SRB
# MIA-PACA2 tumours = experiment: In vivo xenograft efficacy study, MIA-PACA2 model; details: for complete regression in tumour volume at the end of the dosing period: 1 mg/kg IV, 28 days; for tumours not showing complete regression, versus vehicle control: minority of tumours in the group
# Experimental: Mice aged 5-7 weeks weighing approximately 25-32 g were implanted for the study and purchased from Charles River. The pancreatic tumour cell implantation procedure involved MIA-PACA2 cells (1×10^7 in Matrigel) being implanted subcutaneously using a 22-gauge needle onto the rear flank of the mice. Parameters evaluated include: tumour size and animal bodyweight. Tumour volume was measured three times weekly and bodyweight at least 3 times weekly. Allocation to treatment groups was done randomly when tumours reached approximately 50 mm^3 for animals in the efficacy study. […] Each group comprised 8 animals. All protocols used in this study were approved by the appropriate Animal Welfare and Ethical Review Board, and all procedures were carried out under the guidelines of the UK Animal (Scientific Procedures) Act 1986.
# The data shown is mean±SD n=8 up to day 23 and n=4 to the end of the study. […] The starting tumour volumes were […]. Example 1 was active in both of the dosage regimens examined, 1× weekly and 2× weekly, both at a 1 mg/kg dose. Both had ⅝ complete regression in tumour volume at the end of the dosing period.
# BX-PC3 = experiment: 96 hr SRB cell growth inhibition, BX-PC3; format: cell-based; details: Homo sapiens, BXPC-3; BX-PC3, 96 hr SRB
# [1] = Mouse microsomal stability; format: in vitro ADME; details: mouse microsomes; read-out: t1/2 mouse microsomal stability
# [2] = Stability in saline at 0° C.; format: physicochemical
# DU145 = experiment: 72 hr XTT cell viability assay, DU145; format: cell-based; details: Homo sapiens, DU-145; DU145, 72 hr XTT; read-out: IC50 cell growth inhibition
# Description: as §1
# [3] = In vitro blood/plasma partitioning; format: in vitro ADME; details: blood and plasma
# [4] = Plasma protein binding in vitro; format: in vitro ADME
# GQ = experiment: FRET melting with GQ; format: binding
# [5] = Aqueous solubility of salt; format: physicochemical; details: water; HCl/formate salt
structure (smiles),measurement,setting,value
C[C@]12CC[C@H](O)CC1=CC[C@@H]1[C@@H]2CC[C@]2(C)C(c3cccnc3)=CC[C@@H]12 [Abiraterone],IC50,LNCaP,3860 nM
same,IC50,PC-3,4820 nM
"O=C1c2cc(-c3ccc(CN4CCCC4)cc3)c3c4c(cc(NCCN5CCCC5)c(c24)C(=O)N1CCCN1CCOCC1)C(=O)N(CCCN1CCOCC1)C3=O [Example 1, 2,7-bis(3-morpholinopropyl)-4-((2-(pyrrolidin-1-yl)ethyl)amino)-9-(4-(pyrrolidin-1-ylmethyl)phenyl)benzo[lmn][3,8]phenanthroline-1,3,6,8(2H,7H)-tetraone]",IC50,VCaP,68 nM
same,IC50,PANC-1,1.4 nM
same,IC50,MIA-PACA2,1.3 nM
same,greater cellular potency relative to C1,MIA-PACA2; compared with C1,10 fold
same,IC50,MIA-PACA2 cells; read-out: ABS IC50,0.056 nM
same,IC50,MIA-PACA2 cells; read-out: Rel IC50,0.035 nM
same,IC50,22RV1,90 nM
same,IC50,MIA-PACA2^gemR,3.8 nM
same,IC50,CAPAN-1,5.9 nM
same,complete regression in tumour volume at the end of the dosing period,MIA-PACA2 tumours; 1× weekly,⅝
same,complete regression in tumour volume at the end of the dosing period,MIA-PACA2 tumours; 2× weekly,⅝
same,tumour regrowth in complete regression cohorts,MIA-PACA2 tumours; 28 days post-dosing,no regrowth seen after 28 days post-dosing
same,tumour growth and tumour size,"MIA-PACA2 tumours; MIA-PACA2 xenograft, 28 days IV administration, followed by 28 days measurement","inhibited the growth of the pancreatic tumour and reduced the tumour's size considerably more than the comparative compound C1 or the known anti-cancer drug, Gemcitabine"
same,tolerability,"MIA-PACA2 tumours; compound and dosing schedules, IV, mice",well-tolerated showing no sign of adverse effects
same,"tumours not showing complete regression, versus vehicle control",MIA-PACA2 tumours,"reductions in tumour growth, leading to consistently smaller volumes than in the vehicle control groups"
same,IC50,BX-PC3,2.6 nM
same,half-life,[1],4.47 h
same,IC50,LNCaP,247 nM
same,Stability in saline at 0° C.,[2],>1 month
same,IC50,DU145,32 nM
same,blood plasma ratio,[3],6.1
same,IC50,PC-3,3 nM
same,fraction unbound,[4],0.339
same,"FRET ΔTm, ° C. with GQ",GQ,23.1 °C
"O=C1c2cc(-c3ccc(CN4CCOCC4)cc3)c3c4c(cc(NCCN5CCCC5)c(c24)C(=O)N1CCCN1CCOCC1)C(=O)N(CCCN1CCOCC1)C3=O [Example 2, 4-(4-(morpholinomethyl)phenyl)-2,7-bis(3-morpholinopropyl)-9-((2-(pyrrolidin-1-yl)ethyl)amino)benzo[lmn][3,8]phenanthroline-1,3,6,8(2H,7H)-tetraone]",IC50,MIA-PACA2 cells; read-out: ABS IC50,0.292 nM
same,IC50,MIA-PACA2 cells; read-out: Rel IC50,0.188 nM
"O=C1c2cc(-c3cccc(CN4CCCC4)c3)c3c4c(cc(NCCN5CCCC5)c(c24)C(=O)N1CCCN1CCOCC1)C(=O)N(CCCN1CCOCC1)C3=O [Example 3, 2,7-bis(3-morpholinopropyl)-4-((2-(pyrrolidin-1-yl)ethyl)amino)-9-(3-(pyrrolidin-1-ylmethyl)phenyl)benzo[lmn][3,8]phenanthroline-1,3,6,8(2H,7H)-tetraone]",IC50,MIA-PACA2 cells; read-out: ABS IC50,0.284 nM
same,IC50,MIA-PACA2 cells; read-out: Rel IC50,0.282 nM
"O=C1c2cc(-c3ccc(CN4CCCCC4)cc3)c3c4c(cc(NCCN5CCCC5)c(c24)C(=O)N1CCCN1CCOCC1)C(=O)N(CCCN1CCOCC1)C3=O [Example 4, 2,7-bis(3-morpholinopropyl)-4-(4-(piperidin-1-ylmethyl)phenyl)-9-((2-(pyrrolidin-1-yl)ethyl)amino)benzo[lmn][3,8]phenanthroline-1,3,6,8(2H,7H)-tetraone]",IC50,MIA-PACA2 cells; read-out: ABS IC50,0.175 nM
same,IC50,MIA-PACA2 cells; read-out: Rel IC50,0.132 nM
"CCN(CC)Cc1ccc(-c2cc3c4c(c(NCCN5CCCC5)cc5c4c2C(=O)N(CCCN2CCOCC2)C5=O)C(=O)N(CCCN2CCOCC2)C3=O)cc1 [Example 5, 4-(4-((diethylamino)methyl)phenyl)-2,7-bis(3-morpholinopropyl)-9-((2-(pyrrolidin-1-yl)ethyl)amino)benzo[lmn][3,8]phenanthroline-1,3,6,8(2H,7H)-tetraone]",IC50,MIA-PACA2 cells; read-out: ABS IC50,0.18 nM
same,IC50,MIA-PACA2 cells; read-out: Rel IC50,0.239 nM
"O=C1c2cc(-c3ccc(CNC4CCCC4)cc3)c3c4c(cc(NCCN5CCCC5)c(c24)C(=O)N1CCCN1CCOCC1)C(=O)N(CCCN1CCOCC1)C3=O [Example 6, 4-(4-((cyclopentylamino)methyl)phenyl)-2,7-bis(3-morpholinopropyl)-9-((2-(pyrrolidin-1-yl)ethyl)amino)benzo[lmn][3,8]phenanthroline-1,3,6,8(2H,7H)-tetraone]",IC50,MIA-PACA2 cells; read-out: ABS IC50,0.102 nM
same,IC50,MIA-PACA2 cells; read-out: Rel IC50,0.099 nM
"O=C1c2cc(-c3ccc(CN4CCCCCC4)cc3)c3c4c(cc(NCCN5CCCC5)c(c24)C(=O)N1CCCN1CCOCC1)C(=O)N(CCCN1CCOCC1)C3=O [Example 7, 4-(4-(azepan-1-ylmethyl)phenyl)-2,7-bis(3-morpholinopropyl)-9-((2-(pyrrolidin-1-yl)ethyl)amino)benzo[lmn][3,8]phenanthroline-1,3,6,8(2H,7H)-tetraone]",IC50,MIA-PACA2 cells; read-out: ABS IC50,0.182 nM
same,IC50,MIA-PACA2 cells; read-out: Rel IC50,0.117 nM
CN1CCN(Cc2ccc(-c3cc4c5c(c(NCCN6CCCC6)cc6c5c3C(=O)N(CCCN3CCOCC3)C6=O)C(=O)N(CCCN3CCOCC3)C4=O)cc2)CC1 [Example 8],IC50,MIA-PACA2 cells; read-out: ABS IC50,0.277 nM
same,IC50,MIA-PACA2 cells; read-out: Rel IC50,0.174 nM
"O=C1c2ccc3c4c(c(NCCN5CCCC5)cc(c24)C(=O)N1CCCN1CCOCC1)C(=O)N(CCCN1CCOCC1)C3=O [Example C1, reference compound]",IC50,VCaP,135 nM
same,IC50,PANC-1,15.6 nM
same,solubility,[5],> 5000 µg/mL
same,IC50,MIA-PACA2,13 nM
same,IC50,22RV1,90 nM
same,IC50,MIA-PACA2^gemR,14.9 nM
same,IC50,CAPAN-1,26.5 nM
same,"tumours not showing complete regression, versus vehicle control",MIA-PACA2 tumours,"reductions in tumour growth, leading to consistently smaller volumes than in the vehicle control groups"
same,IC50,BX-PC3,15.5 nM
same,half-life,[1],> 8 h
same,IC50,LNCaP,394 nM
same,Stability in saline at 0° C.,[2],>1 month
same,IC50,DU145,113 nM
same,blood plasma ratio,[3],10.9
same,IC50,PC-3,94 nM
same,fraction unbound,[4],0.65
same,"FRET ΔTm, ° C. with GQ",GQ,17.6 °C
